Data on 26 compounds can be found in US20240382482A1, “PLASMA KALLIKREIN INHIBITORS” (TAKEDA PHARMACEUTICAL COMPANY LIMITED, priority 2021, published 2024).

Structures can show the parent of a compound that is named as a salt.

As a reminder, the EC50 is the concentration giving half of the maximal effect.

Sequence of human activated kallikrein enzyme (P03952 391-638 limits assumed): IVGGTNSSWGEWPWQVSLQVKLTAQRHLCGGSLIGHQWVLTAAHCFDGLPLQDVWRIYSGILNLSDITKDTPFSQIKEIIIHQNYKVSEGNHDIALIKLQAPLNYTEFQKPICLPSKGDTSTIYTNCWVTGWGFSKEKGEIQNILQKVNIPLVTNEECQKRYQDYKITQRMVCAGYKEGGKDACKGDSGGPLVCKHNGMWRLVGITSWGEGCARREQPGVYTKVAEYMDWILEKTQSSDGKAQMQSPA
Sequence of human activated kallikrein enzyme (P03952 20-390 partner limits assumed): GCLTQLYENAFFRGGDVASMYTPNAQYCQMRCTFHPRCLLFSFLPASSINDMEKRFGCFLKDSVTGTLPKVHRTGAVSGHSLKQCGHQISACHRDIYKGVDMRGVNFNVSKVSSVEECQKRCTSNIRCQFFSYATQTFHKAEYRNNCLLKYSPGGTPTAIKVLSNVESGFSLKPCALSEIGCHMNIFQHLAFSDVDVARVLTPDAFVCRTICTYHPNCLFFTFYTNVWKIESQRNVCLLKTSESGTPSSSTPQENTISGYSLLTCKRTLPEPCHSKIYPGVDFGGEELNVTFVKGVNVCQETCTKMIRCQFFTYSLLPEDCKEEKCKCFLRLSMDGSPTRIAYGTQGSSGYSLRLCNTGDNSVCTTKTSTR

The target of this assay is human activated kallikrein enzyme (Homo sapiens, UniProt P03952). The assay can be described thus: Inhibition of human activated kallikrein enzyme, fluorogenic peptide substrate assay (500 pM enzyme format). The class given is biochemical. Particulars: 500 pM activated kallikrein, 300 μM PFR-AMC substrate, 30 min preincubation, 10 min reaction, room temperature; read-out: Primary Dose Response Assay: Average EC50. The method, then:
Compounds were evaluated for inhibition of the human activated kallikrein enzyme in two formats of an assay employing a fluorogenic peptide substrate. In one assay format, the concentrations of reagents were as follows: 20 mM Tris pH 7.5, 1 mM EDTA, 150 mM sodium chloride, 0.1% PEG-400, 0.1% Triton X-100, 500 pM activated kallikrein enzyme, 300 μM Pro-Phe-Arg-7-amido-4-methylcoumarin (PFR-AMC) substrate. Prior to reaction initiation with substrate, enzyme and inhibitors were preincubated for 30 min at room temperature. After initiation with substrate, reactions were incubated for 10 min at room temperature and fluorescence emission at 460 nm from 380 nm excitation measured with a microplate reader. In another assay format, the concentrations of reagents were as follows: 20 mM Tris pH 7.5, 1 mM EDTA, 150 mM sodium chloride, 0.1% PEG-400, 0.1% Triton X-100, 5 pM activated kallikrein enzyme, 300 uM PFR-AMC substrate. Prior to reaction initiation with substrate, enzyme and inhibitors were preincubated for 30 min at room temperature. After initiation with substrate, reactions were incubated for 18 hr at room temperature and fluorescence emission at 460 nm from 380 nm excitation measured with a microplate reader.
Table 1 provides the results of the assay in the format with 500 pM activated kallikrein assay. For the compounds listed in Table 1, the EC50 values are reported according to the following ranges: A≤5.0 nM; 5.0 nM<B≤50 nM; 50 nM<C≤500 nM; 500 nM<D≤9000 nM; 9000 nM<E.
In the case of `Nc1nccc2c1CC(C(=O)Nc1cc(NCc3cn4cc(C5CC5)ccc4n3)ccn1)C2` (centres unmarked) [Example 29, 1-amino-N-(4-(((6-cyclopropylimidazo[1,2-a]pyridin-2-yl)methyl)amino)pyridin-2-yl)-6,7-dihydro-5H-cyclopenta[c]pyridine-6-carboxamide], the EC50 was 500 to 9000 nM.

Take `Cc1cc(C(=N)N)cc(C)c1CNc1cc(OCc2cn3cc(C4CC4)ccc3n2)nc(CC(C)(C)C(=O)O)n1` [Example 92, 3-(4-((4-carbamimidoyl-2,6-dimethylbenzyl)amino)-6-((6-cyclopropylimidazo[1,2-a]pyridin-2-yl)methoxy)pyrimidin-2-yl)-2,2-dimethylpropanoic acid]: the EC50 is no more than 5 nM.

On to `CC(C(=O)Nc1cc(NCc2cn3cc(C4CC4)ccc3n2)ncn1)c1ncn2ccc(Cl)cc12` (centres unmarked) [Example 4, 2-(7-chloroimidazo[1,5-a]pyridin-1-yl)-N-(6-(((6-cyclopropylimidazo[1,2-a]pyridin-2-yl)methyl)amino)pyrimidin-4-yl)propanamide], for which the EC50 fell in the range of 5 to 50 nM.

Regarding `O=C(Cc1ncn2ccc(Cl)cc12)Nc1cnnc(OCc2cn3cc(C4CC4)ccc3n2)c1` [Example 34, 2-(7-chloroimidazo[1,5-a]pyridin-1-yl)-N-(6-((6-cyclopropylimidazo[1,2-a]pyridin-2-yl)methoxy)pyridazin-4-yl)acetamide], the EC50 lay within 50 to 500 nM.

With `CCCCCCOC(=O)NC(=N)c1cc(C)c(CNc2cc(OCc3cn4cc(C5CC5)ccc4n3)nc(CCC(=O)OCC)n2)c(C)c1` [Example 75, ethyl 3-(4-((6-cyclopropylimidazo[1,2-a]pyridin-2-yl)methoxy)-6-((4-(N-((hexyloxy)carbonyl)carbamimidoyl)-2,6-dimethylbenzyl)amino)pyrimidin-2-yl)propanoate], the EC50 was 50 to 500 nM.

For the compound `O=C(Cc1ncn2ccc(Cl)cc12)Nc1cc(OCc2cn3cc(C4CC4)ccc3n2)ncn1` [Example 33, 2-(7-chloroimidazo[1,5-a]pyridin-1-yl)-N-(6-((6-cyclopropylimidazo[1,2-a]pyridin-2-yl)methoxy)pyrimidin-4-yl)acetamide], the EC50 lay in the range of 5 to 50 nM.

For `Cc1cc(C(=N)N)cc(C)c1CNc1cc(NCc2cn3cc(C4CC4)ccc3n2)ncn1` [Example 99, 4-(((6-(((6-cyclopropylimidazo[1,2-a]pyridin-2-yl)methyl)amino)pyrimidin-4-yl)amino)methyl)-3,5-dimethylbenzimidamide], the EC50 is no more than 5 nM.

Regarding `O=C(Cn1cc(Cl)ccc1=O)Nc1cc(NCc2cn3cc(C4CC4)ccc3n2)ncn1` [Example 119, 2-(5-chloro-2-oxopyridin-1 (2H)-yl)-N-(6-(((6-cyclopropylimidazo[1,2-a]pyridin-2-yl)methyl)amino)pyrimidin-4-yl)acetamide], the 50% effective concentration (EC50) was greater than 9000 nM.

As for `CCOC(=O)NC(=N)c1cc(C)c(CNc2cc(OCc3cn4cc(C5CC5)ccc4n3)nc(C(=O)O)n2)c(C)c1` [Example 88, 4-((6-cyclopropylimidazo[1,2-a]pyridin-2-yl)methoxy)-6-(4-(N-(ethoxycarbonyl)carbamimidoyl)-2,6-dimethylbenzylamino)pyrimidine-2-carboxylic acid], the EC50 is no more than 5 nM.

As to `O=C(Cc1cnc2[nH]cc(Cl)c2c1)Nc1cc(NCc2cn3cc(C4CC4)ccc3n2)ncn1` [Example 129, 2-(3-chloro-1H-pyrrolo[2,3-b]pyridin-5-yl)-N-(6-(((6-cyclopropylimidazo[1,2-a]pyridin-2-yl)methyl)amino)pyrimidin-4-yl)acetamide], the EC50 was 50 to 500 nM.

As for `O=C(Cc1cnc2[nH]cc(Cl)c2c1)Nc1cc(NCc2cn3cc(C4CC4)ccc3n2)ccn1` [Example 130, 2-(3-chloro-1H-pyrrolo[2,3-b]pyridin-5-yl)-N-(4-(((6-cyclopropylimidazo[1,2-a]pyridin-2-yl)methyl)amino)pyridin-2-yl)acetamide], the EC50 was no more than 5 nM.

Regarding `Cc1cc(N)nc(C)c1CNc1cc(NCc2cn3cc(C4CC4)ccc3n2)ncn1` [Example 111, N^4-((6-amino-2,4-dimethylpyridin-3-yl)methyl)-N^6-((6-cyclopropylimidazo[1,2-a]pyridin-2-yl)methyl)pyrimidine-4,6-diamine], the EC50 was no more than 5 nM.

Regarding `O=C(NCc1ncn2ccc(Cl)cc12)c1cnnc(NCc2cn3cc(C4CC4)ccc3n2)c1` [Example 65, N-((7-chloroimidazo[1,5-a]pyridin-1-yl)methyl)-6-(((6-cyclopropylimidazo[1,2-a]pyridin-2-yl)methyl)amino)pyridazine-4-carboxamide], the half-maximal effective concentration (EC50) was in the range of 5 to 50 nM.

For `C[C@H](c1cccc(Cl)c1)[C@@H](C)C(=O)Nc1cc(NCc2cn3cc(C4CC4)ccc3n2)ncn1` [Example 134, (2R,3S)-3-(3-chlorophenyl)-N-(6-(((6-cyclopropylimidazo[1,2-a]pyridin-2-yl)methyl)amino)pyrimidin-4-yl)-2-methylbutanamide], the EC50 was in the range of 500 to 9000 nM.

As for `Cc1cc(C(=N)N)cc(C)c1CNc1cc(OCc2cn3cc(C4CC4)cc(CCC(=O)O)c3n2)ncn1` [Example 97, 3-(2-(((6-((4-carbamimidoyl-2,6-dimethylbenzyl)amino)pyrimidin-4-yl)oxy)methyl)-6-cyclopropylimidazo[1,2-a]pyridin-8-yl)propanoic acid], the EC50 is no more than 5 nM.

`NC(=O)Cc1cc2c(Cl)cn(-c3cc(NCc4cn5cc(C6CC6)ccc5n4)ccn3)c2cc1F` [Example 127, 2-(3-chloro-1-(4-(((6-cyclopropylimidazo[1,2-a]pyridin-2-yl)methyl)amino)pyridin-2-yl)-6-fluoro-1H-indol-5-yl)acetamide]: the EC50 lay in the range of 500 to 9000 nM.

With `N=S(=O)(Nc1cc(NCc2cn3cc(C4CC4)ccc3n2)ncn1)C1CC1c1cccc(Cl)c1` (racemic) [Example 142, (SR,1SR,2RS)-2-(3-chlorophenyl)-N-(6-(((6-cyclopropylimidazo[1,2-a]pyridin-2-yl)methyl)amino)pyrimidin-4-yl)cyclopropane-1-sulfonimidamide], the 50% effective concentration (EC50) lay within 500 to 9000 nM.

Consider `O=C(Cc1ncn2ccc(Cl)cc12)Nc1cc(Cc2cn3cc(C4CC4)ccc3n2)ncn1` [Example 57, 2-(7-chloroimidazo[1,5-a]pyridin-1-yl)-N-(6-((6-cyclopropylimidazo[1,2-a]pyridin-2-yl)methyl)pyrimidin-4-yl)acetamide formic acid salt], for which the EC50 was no more than 5 nM.

With `CCCCCCOC(=O)NC(=N)c1cc(C)c(CNc2cc(OCc3cn4cc(C5CC5)ccc4n3)nc(C(=O)OCC)n2)c(C)c1` [Example 87, ethyl 4-((6-cyclopropylimidazo[1,2-a]pyridin-2-yl)methoxy)-6-(4-(N-(hexyloxycarbonyl)carbamimidoyl)-2,6-dimethylbenzylamino)pyrimidine-2-carboxylate], the EC50 is 50 to 500 nM.

Consider `O=C(Cc1cc2c(Cl)c[nH]c2cc1F)Nc1cc(NCc2cn3cc(C4CC4)ccc3n2)ncn1` [Example 131, 2-(3-chloro-6-fluoro-1H-indol-5-yl)-N-(6-(((6-cyclopropylimidazo[1,2-a]pyridin-2-yl)methyl)amino)pyrimidin-4-yl)acetamide], for which the EC50 fell in the range of 500 to 9000 nM.

For `Cc1cc(C(=N)NO)cc(C)c1CNc1cc(OCc2cn3cc(C4CC4)ccc3n2)ncn1` [Example 71, 4-(((6-((6-cyclopropylimidazo[1,2-a]pyridin-2-yl)methoxy)pyrimidin-4-yl)amino)methyl)-N-hydroxy-3,5-dimethylbenzimidamide], the EC50 was 5 to 50 nM.

On to `COc1ccc2oc(=O)n(CC(=O)Nc3cc(NCc4cn5cc(C6CC6)ccc5n4)ccn3)c2c1` [Example 125, N-(4-(((6-cyclopropylimidazo[1,2-a]pyridin-2-yl)methyl)amino)pyridin-2-yl)-2-(5-methoxy-2-oxobenzo[d]oxazol-3 (2H)-yl)acetamide], for which the EC50 was greater than 9000 nM.

Take `COc1ccc(-n2cnnn2)c(CNc2cc(C(F)(F)c3cn4cc(C5CC5)ccc4n3)ncn2)c1F` [Example 62, 6-((6-cyclopropylimidazo[1,2-a]pyridin-2-yl)difluoromethyl)-N-(2-fluoro-3-methoxy-6-(1H-tetrazol-1-yl)benzyl)pyrimidin-4-amine]: the EC50 fell in the range of 500 to 9000 nM.

As for `O=S(=O)(Nc1cc(NCc2cn3cc(C4CC4)ccc3n2)ncn1)C1CC1c1cccc(Cl)c1` (centres unmarked) [Example 67, 2-(3-chlorophenyl)-N-(6-(((6-cyclopropylimidazo[1,2-a]pyridin-2-yl)methyl)amino)pyrimidin-4-yl)cyclopropane-1-sulfonamide], the EC50 lay within 500 to 9000 nM.

In the case of `NC(=O)c1ccc(Cl)cc1CC(=O)Nc1cc(NCc2cn3cc(C4CC4)ccc3n2)ncn1` [Example 11, 4-chloro-2-(2-((6-(((6-cyclopropylimidazo[1,2-a]pyridin-2-yl)methyl)amino)pyrimidin-4-yl)amino)-2-oxoethyl)benzamide], the EC50 is 500 to 9000 nM.

Consider `CC(=O)OCONC(=N)c1cc(C)c(CNc2cc(OCc3cn4cc(C5CC5)ccc4n3)ncn2)c(C)c1` [Example 90, ((4-(((6-((6-cyclopropylimidazo[1,2-a]pyridin-2-yl)methoxy)pyrimidin-4-yl)amino)methyl)-3,5-dimethylbenzimidamido)oxy)methyl acetate], for which the half-maximal effective concentration (EC50) is 500 to 9000 nM.
